Marks after values point to notes of the source that are not given here.
These molecules were tested on Kunming mice (assay: Influence on autonomic activity of normal mice (ZIL-2 mice autonomic activity meter, counts within 10 min)). Settings: intragastric, 25 mg/kg, 1 h after administration, x ± s, n = 10.
Type: in vivo
Excerpt: (§1) 1.1 Animals for experiments: Kunming mice, weighting 18.9˜22.2 g for females, and 20.2˜23.0 g for males, licensed under SCXK-(Ji) 2007-0003, and provided by The experimental animal centre, Jilin University.
(§2) 1.2 Chemicals for experiments: The flavone derivatives provided in Examples 1-41 and the flavanone derivatives provided in Examples 42-71 are all formulated with 0.5% sodium carboxymethyl cellulose as solutions with required concentrations.
(§3) 1.3 Grouping of animals: 6420 animals are employed in the entire experiments and 2140 of the animals are randomly divided into 214 groups by gender, and the […] include: control group, low dosage group for each experimental drugs (25 mg/kg), medium dosage group for each experimental drugs (50 mg/kg), and high dosage group for each experimental drugs (100 mg/kg). Each group has 10 animals and either female or male constitutes half of the group. The groups are used in behavior observation and voluntary action observation. The other 4280 animals are randomly divided into 214 groups by gender respectively (the grouping way is the same with that described above). Each group has 20 animals and either female or male constitutes half of the group. In each group, 10 animals are used in hypnosis experimentations with pentobarbital sodium doses below the threshold, and the other 10 animals are used hypnosis experimentations with pentobarbital sodium doses at the threshold.
1.4 Experimental instrument and agents: ZIL-2 mice autonomic activity meter, production of Institute of Materia Medica of Chinese Academy of Medical Sciences; pentobarbital sodium, Lot: 100808, 25 g/bottle, Beijing Chemical Reagent Company equipment imported from Germany.
1.5.2 Influence on Autonomic Activity of Normal Mice
After observing the general behavior, in 1 h, 2 h and 24 h after drug administration, respectively, ZIL-2 mice autonomic activity meter is put respectively. Number of autonomic activities of each group of mice is measured within 10 min. Results among groups are compared.
(§4) Number of autonomic activities is detected by leneve Test for homogeneity of variance. If the homogeneity of variance is good (P>0.05), statistical analysis is performed with ANOVA. If ANOVA have statistical significance (P≦0.05), Dunnett's test for multiple comparisons analysis is performed. Number of animals of sleeping mice is applied of ANOVA. Incidence rate of animal asleep is applied of χ2 test. Sleep latency and sleep duration are recorded in min, averaged by group, represented by standard deviation, and undergo statistical analysis using ANOVA.

Row | Compound | Times of activities in 1 h after drug administration/10 min
1 | COc1cc(C2Oc3c(OC)c(OC)c(OC)c(O)c3C(=O)C2OC)c(OC)c(OC)c1OC (stereo not drawn) [Example 68, 5-hydroxyl-3,6,7,8,3′,4′,5′,6′-octa methoxyl-flavanone] | 287.3 ± 47.9 /10 min
2 | COc1cc(OC)c2c(c1)OC(c1cc(OC)c(OC)c(OC)c1OC)CC2=O (stereo not drawn) [Example 66, 5,7,2′,3′,4′,5′-hexa methoxyl-flavanone] | 307.7 ± 54.6 /10 min

Same assay, conditions: intragastric, 25 mg/kg, 2 h after administration, x ± s, n = 10

Row | Compound | Times of activities in 2 h after drug administration/10 min
3 | COc1cc(C2Oc3c(OC)c(OC)c(OC)c(O)c3C(=O)C2OC)c(OC)c(OC)c1OC (stereo not drawn) [Example 68, 5-hydroxyl-3,6,7,8,3′,4′,5′,6′-octa methoxyl-flavanone] | 267.7 ± 40.4 /10 min
4 | COc1cc(OC)c2c(c1)OC(c1cc(OC)c(OC)c(OC)c1OC)CC2=O (stereo not drawn) [Example 66, 5,7,2′,3′,4′,5′-hexa methoxyl-flavanone] | 281.3 ± 31.2 /10 min

Same assay, conditions: intragastric, 25 mg/kg, 24 h after administration, x ± s, n = 10

Row | Compound | Times of activities in 24 h after drug administration/10 min
5 | COc1cc(C2Oc3c(OC)c(OC)c(OC)c(O)c3C(=O)C2OC)c(OC)c(OC)c1OC (stereo not drawn) [Example 68, 5-hydroxyl-3,6,7,8,3′,4′,5′,6′-octa methoxyl-flavanone] | 322.9 ± 76.0 /10 min
6 | COc1cc(OC)c2c(c1)OC(c1cc(OC)c(OC)c(OC)c1OC)CC2=O (stereo not drawn) [Example 66, 5,7,2′,3′,4′,5′-hexa methoxyl-flavanone] | 314.7 ± 66.7 /10 min

Same assay, conditions: intragastric, 50 mg/kg, 1 h after administration, x ± s, n = 10

Row | Compound | Times of activities in 1 h after drug administration/10 min
7 | COc1cc(C2Oc3c(OC)c(OC)c(OC)c(O)c3C(=O)C2OC)c(OC)c(OC)c1OC (stereo not drawn) [Example 68, 5-hydroxyl-3,6,7,8,3′,4′,5′,6′-octa methoxyl-flavanone] | 248.2 ± 57.4 /10 min
8 | COc1cc(OC)c2c(c1)OC(c1cc(OC)c(OC)c(OC)c1OC)CC2=O (stereo not drawn) [Example 66, 5,7,2′,3′,4′,5′-hexa methoxyl-flavanone] | 275.8 ± 44.3 /10 min

Same assay, conditions: intragastric, 50 mg/kg, 2 h after administration, x ± s, n = 10

Row | Compound | Times of activities in 2 h after drug administration/10 min
9 | COc1cc(C2Oc3c(OC)c(OC)c(OC)c(O)c3C(=O)C2OC)c(OC)c(OC)c1OC (stereo not drawn) [Example 68, 5-hydroxyl-3,6,7,8,3′,4′,5′,6′-octa methoxyl-flavanone] | 243.2 ± 54.6 /10 min
10 | COc1cc(OC)c2c(c1)OC(c1cc(OC)c(OC)c(OC)c1OC)CC2=O (stereo not drawn) [Example 66, 5,7,2′,3′,4′,5′-hexa methoxyl-flavanone] | 270.7 ± 46.3 /10 min

Same assay, conditions: intragastric, 50 mg/kg, 24 h after administration, x ± s, n = 10

Row | Compound | Times of activities in 24 h after drug administration/10 min
11 | COc1cc(C2Oc3c(OC)c(OC)c(OC)c(O)c3C(=O)C2OC)c(OC)c(OC)c1OC (stereo not drawn) [Example 68, 5-hydroxyl-3,6,7,8,3′,4′,5′,6′-octa methoxyl-flavanone] | 319.6 ± 75.9 /10 min
12 | COc1cc(OC)c2c(c1)OC(c1cc(OC)c(OC)c(OC)c1OC)CC2=O (stereo not drawn) [Example 66, 5,7,2′,3′,4′,5′-hexa methoxyl-flavanone] | 314.1 ± 81.4 /10 min

Same assay, conditions: intragastric, 100 mg/kg, 1 h after administration, x ± s, n = 10

Row | Compound | Times of activities in 1 h after drug administration/10 min
13 | COc1cc(C2Oc3c(OC)c(OC)c(OC)c(O)c3C(=O)C2OC)c(OC)c(OC)c1OC (stereo not drawn) [Example 68, 5-hydroxyl-3,6,7,8,3′,4′,5′,6′-octa methoxyl-flavanone] | 128.2 ± 30.9 /10 min
14 | COc1cc(OC)c2c(c1)OC(c1cc(OC)c(OC)c(OC)c1OC)CC2=O (stereo not drawn) [Example 66, 5,7,2′,3′,4′,5′-hexa methoxyl-flavanone] | 258.4 ± 40.3 /10 min

Same assay, conditions: intragastric, 100 mg/kg, 2 h after administration, x ± s, n = 10

Row | Compound | Times of activities in 2 h after drug administration/10 min
15 | COc1cc(C2Oc3c(OC)c(OC)c(OC)c(O)c3C(=O)C2OC)c(OC)c(OC)c1OC (stereo not drawn) [Example 68, 5-hydroxyl-3,6,7,8,3′,4′,5′,6′-octa methoxyl-flavanone] | 241.7 ± 40.9 /10 min
16 | COc1cc(OC)c2c(c1)OC(c1cc(OC)c(OC)c(OC)c1OC)CC2=O (stereo not drawn) [Example 66, 5,7,2′,3′,4′,5′-hexa methoxyl-flavanone] | 243.9 ± 41.2 /10 min

Same assay, conditions: intragastric, 100 mg/kg, 24 h after administration, x ± s, n = 10

Row | Compound | Times of activities in 24 h after drug administration/10 min
17 | COc1cc(C2Oc3c(OC)c(OC)c(OC)c(O)c3C(=O)C2OC)c(OC)c(OC)c1OC (stereo not drawn) [Example 68, 5-hydroxyl-3,6,7,8,3′,4′,5′,6′-octa methoxyl-flavanone] | 298.1 ± 80.2 /10 min
18 | COc1cc(OC)c2c(c1)OC(c1cc(OC)c(OC)c(OC)c1OC)CC2=O (stereo not drawn) [Example 66, 5,7,2′,3′,4′,5′-hexa methoxyl-flavanone] | 334.7 ± 62.9 /10 min

Each molecule was assayed on Kunming mice (assay: Influence on hypnosis effect with pentobarbital sodium doses below the threshold (25 mg/kg i.p.)). Settings: test drug 25 mg/kg intragastric single dose, pentobarbital sodium 25 mg/kg i.p. 60 min later, sleep observed in 30 min, n = 10.
Type: in vivo
Excerpt: as §1, §2, §3
1.5.3 Influence on Hypnosis Effect with Mice Pentobarbital Sodium Doses Below the Threshold
(§5) The drug is intragastric administered in mice for single time, 2 animals of each group are given drug per round with the dosing interval of 40 min (±5 min). According to the administration round, in 60 min (±5 min) of each round after the drug administration, the animals were intraperitoneally injected 0.3% sodium pentobarbital 25 mg/kg, respectively. Sleep condition of the animals were observed within 30 min (under sleep determination standard of loss of righting reflex more than 1 min). After animals undergo loss of righting reflex, number of the animals is recorded, to calculate sleep percentage.
as §4

Row | Compound | Number of sleeping animals | rate of sleeping (%)
19 | COc1cc(C2Oc3c(OC)c(OC)c(OC)c(O)c3C(=O)C2OC)c(OC)c(OC)c1OC (stereo not drawn) [Example 68, 5-hydroxyl-3,6,7,8,3′,4′,5′,6′-octa methoxyl-flavanone] | 3 | 30%
20 | COc1cc(OC)c2c(c1)OC(c1cc(OC)c(OC)c(OC)c1OC)CC2=O (stereo not drawn) [Example 66, 5,7,2′,3′,4′,5′-hexa methoxyl-flavanone] | 3 | 30%

Same assay, conditions: test drug 50 mg/kg intragastric single dose, pentobarbital sodium 25 mg/kg i.p. 60 min later, sleep observed in 30 min, n = 10

Row | Compound | Number of sleeping animals | rate of sleeping (%)
21 | COc1cc(C2Oc3c(OC)c(OC)c(OC)c(O)c3C(=O)C2OC)c(OC)c(OC)c1OC (stereo not drawn) [Example 68, 5-hydroxyl-3,6,7,8,3′,4′,5′,6′-octa methoxyl-flavanone] | 4 | 40* %
22 | COc1cc(OC)c2c(c1)OC(c1cc(OC)c(OC)c(OC)c1OC)CC2=O (stereo not drawn) [Example 66, 5,7,2′,3′,4′,5′-hexa methoxyl-flavanone] | 5 | 50** %

Same assay, conditions: test drug 100 mg/kg intragastric single dose, pentobarbital sodium 25 mg/kg i.p. 60 min later, sleep observed in 30 min, n = 10

Row | Compound | Number of sleeping animals | rate of sleeping (%)
23 | COc1cc(C2Oc3c(OC)c(OC)c(OC)c(O)c3C(=O)C2OC)c(OC)c(OC)c1OC (stereo not drawn) [Example 68, 5-hydroxyl-3,6,7,8,3′,4′,5′,6′-octa methoxyl-flavanone] | 6 | 60** %
24 | COc1cc(OC)c2c(c1)OC(c1cc(OC)c(OC)c(OC)c1OC)CC2=O (stereo not drawn) [Example 66, 5,7,2′,3′,4′,5′-hexa methoxyl-flavanone] | 8 | 80*** %

These molecules were tested on Kunming mice (assay: Influence on hypnosis effect with pentobarbital sodium doses at the threshold (50 mg/kg i.p.)). Settings: 25 mg/kg intragastric single dose, pentobarbital sodium 50 mg/kg i.p. 60 min later, x ± s, n = 10.
Type: in vivo
Excerpt: as §1, §2, §3
1.5.4 Influence on Hypnosis Effect with Mice Pentobarbital Sodium Doses at the Threshold
as §5, with “50” for “25”, “Time to fall asleep (sleep latency) and sleep duration” for “Sleep condition”, “recorded” for “observed”, “under” for “30 min (under”, “min.” for “min). After animals undergo loss of righting reflex, number of the animals is recorded, to calculate sleep percentage.”
as §4

Row | Compound | duration of sleep | time to sleep
25 | COc1cc(C2Oc3c(OC)c(OC)c(OC)c(O)c3C(=O)C2OC)c(OC)c(OC)c1OC (stereo not drawn) [Example 68, 5-hydroxyl-3,6,7,8,3′,4′,5′,6′-octa methoxyl-flavanone] | 20.69 ± 25.22 min | 5.36 ± 2.23 min
26 | COc1cc(OC)c2c(c1)OC(c1cc(OC)c(OC)c(OC)c1OC)CC2=O (stereo not drawn) [Example 66, 5,7,2′,3′,4′,5′-hexa methoxyl-flavanone] | 23.81 ± 25.29 min | 5.37 ± 2.12 min

Same assay, conditions: 50 mg/kg intragastric single dose, pentobarbital sodium 50 mg/kg i.p. 60 min later, x ± s, n = 10

Row | Compound | duration of sleep | time to sleep
27 | COc1cc(C2Oc3c(OC)c(OC)c(OC)c(O)c3C(=O)C2OC)c(OC)c(OC)c1OC (stereo not drawn) [Example 68, 5-hydroxyl-3,6,7,8,3′,4′,5′,6′-octa methoxyl-flavanone] | 29.78 ± 28.77 min | 5.09 ± 2.44 min
28 | COc1cc(OC)c2c(c1)OC(c1cc(OC)c(OC)c(OC)c1OC)CC2=O (stereo not drawn) [Example 66, 5,7,2′,3′,4′,5′-hexa methoxyl-flavanone] | 27.79 ± 26.78 min | 5.12 ± 2.65 min

Same assay, conditions: 100 mg/kg intragastric single dose, pentobarbital sodium 50 mg/kg i.p. 60 min later, x ± s, n = 10

Row | Compound | duration of sleep | time to sleep
29 | COc1cc(C2Oc3c(OC)c(OC)c(OC)c(O)c3C(=O)C2OC)c(OC)c(OC)c1OC (stereo not drawn) [Example 68, 5-hydroxyl-3,6,7,8,3′,4′,5′,6′-octa methoxyl-flavanone] | 64.55 ± 47.91 min | 3.31 ± 1.14 min
30 | COc1cc(OC)c2c(c1)OC(c1cc(OC)c(OC)c(OC)c1OC)CC2=O (stereo not drawn) [Example 66, 5,7,2′,3′,4′,5′-hexa methoxyl-flavanone] | 61.44 ± 47.33 min | 3.14 ± 1.10 min
